Laboratory results from patent US20110287069A1, “SOLID ORAL FORMULATIONS OF A PYRIDOPYRIMIDINONE” (priority 2009, published 2011).

Legend:
[1] = solubility and dissolution rate in aqueous media; assay type: physicochemical
Excerpt: Even at a lower pH of 1, the dissolution rate of (R)-2-amino-7-[4-fluoro-2-(6-methoxy-pyridin-2-yl)-phenyl]-4-methyl-7,8-dihydro-6H-pyrido[4,3-d]pyrimidin-5-one is too slow. The present inventors have discovered that, when (R)-2-amino-7-[4-fluoro-2-(6-methoxy-pyridin-2-yl)-phenyl]-4-methyl-7,8-dihydro-6H-pyrido[4,3-d]pyrimidin-5-one is in the presence of a surfactant or an acid, the problems of a low solubility and a slow dissolution rate are overcome, resulting in (R)-2-amino-7-[4-fluoro-2-(6-methoxy-pyridin-2-yl)-phenyl]-4-methyl-7,8-dihydro-6H-pyrido[4,3-d]pyrimidin-5-one being soluble in aqueous solution and a dissolution rate that is unexpectedly faster and higher.

[2] = particle size by laser light diffraction; assay type: physicochemical; details: micronized, screened through #25 screen
Excerpt: (R)-2-Amino-7-[4-fluoro-2-(6-methoxy-pyridin-2-yl)-phenyl]-4-methyl-7,8-dihydro-6H-pyrido[4,3-d]pyrimidin-5-one was micronized and screened through a #25 screen to a D average particle size of about 2 microns, with laser light diffraction yielding the following results: D(10) 0.78 μm, D(50) 2.18 μm, and D(90) 3.95 μm. The micronized (R)-2-amino-7-[4-fluoro-2-(6-methoxy-pyridin-2-yl)-phenyl]-4-methyl-7,8-dihydro-6H-pyrido[4,3-d]pyrimidin-5-one was then screened and added to a mixing bin along with the succinic acid and part A (50%) of the microcrystalline cellulose. The contents in the mixing bin were mixed for 150 revolutions, screened through a #40 screen and combine with a screened (#40 screen) mixture of AEROSIL 200, crospovidone, and the remaining other part B (50%) of the microcrystalline cellulose. This combination was mixed for 250 revolutions and screened through a #40 screen, and then combine with a first frozen and then milled mixture of vitamin E TPGS (screen no. 0063 using a Fitz mill) and magnesium stearate that was passed through at #30 mesh, to form a final combination, which was then blended together for 150 revolutions and encapsulated in a hard gelatin capsule using an encapsulation machine.

For COc1cccc(-c2cc(F)ccc2[C@H]2Cc3nc(N)nc(C)c3C(=O)N2)n1 [(R)-2-amino-7-[4-fluoro-2-(6-methoxy-pyridin-2-yl)-phenyl]-4-methyl-7,8-dihydro-6H-pyrido[4,3-d]pyrimidin-5-one], the solubility ([1]; aqueous media with a pH above 3) was “very low solubility”, the dissolution rate ([1]; pH of 1) was “too slow” and the “D(10) particle size” value [2] was 0.78 μm. The “D(50) particle size” value [2] was 2.18 μm and the “D(90) particle size” value [2] was 3.95 μm.
